# Assay results taken from the supplement of paper PMC11061612.
# Columns and labels:
# Assay in all cases: combination Emax (second highest fraction inhibited in the dose matrix, 72 h); higher = more inhibition; extreme values may be limits of the assay
# [1] = test system: H9 (T-Cell Non-Hodgkin's Lymphoma)
# Method in brief: (§1)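 Bliss excess equals the observed combination effect minus the expected value EA + EB − EA·EB, where EA and EB are the effects of each agent alone. Combination Emax is the second-highest inhibition within the matrix. Inhibition was scaled from CellTiter-Glo 2.0 luminescence, with 0 set by vehicle wells and 1 by blank wells, after 72 hours of two-drug dosing of cells plated in 1536-well plates.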
# [2] = test system: HCC1419 (Breast Carcinoma)
# Method in brief: as §1
# [3] = test system: NCI-H520 (Squamous Cell Lung Carcinoma)
# Method in brief: as §1
# [4] = test system: MOG-G-CCM (Low Grade Glioma)
# Method in brief: as §1
# [5] = test system: JHH-4 (Hepatocellular Carcinoma)
# Method in brief: as §1
# [6] = test system: KP-3 (Pancreatic Carcinoma)
# Method in brief: as §1
# [7] = test system: PC-3 (Prostate Carcinoma)
# Method in brief: as §1
# [8] = test system: KU812 (Chronic Myelogenous Leukemia)
# Method in brief: as §1
# [9] = test system: ST486 (Burkitt's Lymphoma)
# Method in brief: as §1
# SJSA-1 (Osteosarcoma) = test system: SJSA-1 (Osteosarcoma)
# Method in brief: as §1
# [10] = test system: 8505C (Thyroid Gland Carcinoma)
# Method in brief: as §1
# [11] = test system: KY821 (Acute Myeloid Leukemia)
# Method in brief: as §1
# [12] = test system: NCCIT (Other Solid Carcinomas)
# Method in brief: as §1
# [13] = test system: NCI-H929 (Plasma Cell Myeloma)
# Method in brief: as §1
# G-361 (Melanoma) = test system: G-361 (Melanoma)
# Method in brief: as §1
# [14] = test system: MOLM-13 (Acute Myeloid Leukemia)
# Method in brief: as §1
# [15] = test system: NCI-H526 (Small Cell Lung Carcinoma)
# Method in brief: as §1
# [16] = test system: IM-95 (Gastric Carcinoma)
# Method in brief: as §1
# [17] = test system: CHSA8926 (Chondrosarcoma)
# Method in brief: as §1
# [18] = test system: KMS-12-BM (Plasma Cell Myeloma)
# Method in brief: as §1
Compound,combination Emax [1],combination Emax [2],combination Emax [3],combination Emax [4],combination Emax [5],combination Emax [6],combination Emax [7],combination Emax [8],combination Emax [9],combination Emax (SJSA-1 (Osteosarcoma)),combination Emax [10],combination Emax [11],combination Emax [12],combination Emax [13],combination Emax (G-361 (Melanoma)),combination Emax [14],combination Emax [15],combination Emax [16],combination Emax [17],combination Emax [18]
"CC1(C)CCC(CN2CCN(c3ccc(C(=O)NS(=O)(=O)c4ccc(NCC5CCOCC5)c([N+](=O)[O-])c4)c(Oc4cnc5[nH]ccc5c4)c3)CC2)=C(c2ccc(Cl)cc2)C1 [Venetoclax] + COc1cc(Nc2ncc3c(n2)-c2ccc(Cl)cc2C(c2c(F)cccc2OC)=NC3)ccc1C(=O)O [Alisertib] (first compound max 1 µM, 7x7, partner max 10 µM)",0.802,0.15,0.54,0.806,0.602,0.103,0.321,0.838,0.909,0.33,0.275,1,0.51,0.662,0.415,1,0.852,0.412,0.531,1
"CC1(C)CCC(CN2CCN(c3ccc(C(=O)NS(=O)(=O)c4ccc(NCC5CCOCC5)c([N+](=O)[O-])c4)c(Oc4cnc5[nH]ccc5c4)c3)CC2)=C(c2ccc(Cl)cc2)C1 [Venetoclax] + C[C@@H]1COCCN1C2=NC(=NC(=C2)C3(CC3)[S@](=N)(=O)C)C4=C5C=CNC5=NC=C4 [AZD6738] (first compound max 1 µM, 7x7, partner max 10 µM)",1,0.343,0.654,0.538,0.254,0.323,0.517,0.83,0.861,0.478,0.482,1,0.607,0.78,0.599,1,0.889,0.169,0.469,1
"CC1(C)CCC(CN2CCN(c3ccc(C(=O)NS(=O)(=O)c4ccc(NCC5CCOCC5)c([N+](=O)[O-])c4)c(Oc4cnc5[nH]ccc5c4)c3)CC2)=C(c2ccc(Cl)cc2)C1 [Venetoclax] + C[C@@H](Nc1cc(F)cc(F)c1)c1cc(C(=O)N(C)C)cc2c(=O)cc(N3CCOCC3)oc12 [AZD8186] (first compound max 1 µM, 7x7, partner max 3 µM)",0.299,0.181,0.488,0.398,0.211,0.0603,0.312,0.205,0.695,0.123,0.109,1,0.177,0.811,0.248,1,0.799,0.208,0.478,1
"CC1(C)CCC(CN2CCN(c3ccc(C(=O)NS(=O)(=O)c4ccc(NCC5CCOCC5)c([N+](=O)[O-])c4)c(Oc4cnc5[nH]ccc5c4)c3)CC2)=C(c2ccc(Cl)cc2)C1 [Venetoclax] + Cc1cc2ncnn2cc1Nc1ncc2c(n1)n(C1CCOCC1)c(=O)n2C [AZD7648] (first compound max 1 µM, 7x7, partner max 10 µM)",0.396,0.383,0.54,0.303,0.208,0.13,0.263,0.489,0.69,0.291,0.187,0.956,0.289,0.812,0.152,0.956,0.657,0.155,0.359,1
"CC1(C)CCC(CN2CCN(c3ccc(C(=O)NS(=O)(=O)c4ccc(NCC5CCOCC5)c([N+](=O)[O-])c4)c(Oc4cnc5[nH]ccc5c4)c3)CC2)=C(c2ccc(Cl)cc2)C1 [Venetoclax] + Cn1cnc2c(F)c(Nc3ccc(Br)cc3Cl)c(C(=O)NOCCO)cc21 [Selumetinib] (first compound max 1 µM, 7x7, partner max 3 µM)",0.931,0.201,0.113,0.0923,0.188,0.135,0.152,0.783,0.754,0.325,0.36,1,0.112,0.386,0.702,1,0.625,0.179,0.148,1
